Measurements from US9968557B1, “Method of preparing modified multilayered microstructures with enhanced oral bioavailability” (Florida A&M University, priority 2011, dated 2018).
≈ marks a conversion by molar mass, not a printed value.

Assays:
[1] = Partition co-efficient in an octanol-water system; format: physicochemical; conditions: octanol-water 1:1
Experimental: (§1) Solubility measurements were assayed by HPLC. Five milligrams of DIM-C-pPhC6H5 (“DIM-P”) was suspended in 1 ml of different buffers having pH 2.0, 4.0, 5.0, 6.0, 7.0 and 8.0 in a centrifuge tubes. The tubes were placed at 37±0.1° C. and kept for shaking at 1500 rpm for 24 hours. The suspensions were centrifuged, and supernatant were filtered using 0.1 μm filters prior to HPLC analysis. Partition co-efficient of DIM-P was measured in an octanol-water system. Octanol and water were mixed in 1:1 concentration and 3 mg of DIM-P was added to 2 mL of mixture followed by vigorous shaking for 5 minutes. The mixture was separated by centrifugation and samples were collected and filtered through 0.1 μm filters prior to HPLC analysis.

[2] = Solubility of DIM-P in buffers of different pH, assayed by HPLC; format: physicochemical
Experimental: as §1

c1ccc(-c2ccc(C(c3c[nH]c4ccccc34)c3c[nH]c4ccccc34)cc2)cc1 [DIM-P, DIM-C-pPhC6H5]
log p value [1]: 6.97±0.12 | solubility ([2]; at any pH): less than 1 μg/mL | solubility ([2]; pH 2.0, 37°C, 24 hours shaking): 0.18 ± 0.003 µg/mL (≈ 0.452 µM) | Maximum solubility ([2]; pH 8.0, 37°C, 24 hours shaking): 0.73 ± 0.09 µg/mL | sequence of solubility ([2]; rank order by pH): pH 8.0>6.0>4.0>2.0
